Here are results for 3 molecules from publication PMC12656219, “Cytotoxic Effects Induced by Combined Exposure of the Patulin, Ochratoxin A, and Acetamiprid to HK-2 and SK-N-SH Cell Lines” (Toxins, 2025).

One test has as its system HK-2 cells. The test is described as follows: CCK-8 cell viability, individual and combined exposure (CI/DRI analysis), HK-2 cells. In kind it is cell-based, human. The following applies: for IC50: Homo sapiens; for DRI (dose reduction index): in PAT+OTA+ACM group, from low to high doses. As for the experimental part: (§1) The cytotoxicity of individual contaminations was evaluated using dose–response curves, from which half-maximal inhibitory concentration (IC50) values were calculated. Contaminant concentration and exposure duration were identified as the primary determinants influencing cytotoxic responses. Concentrations employed in the binary and ternary combination assays were selected based on IC50 values obtained from individual treatments in HK-2 and SK-N-SH cell lines.
(§2) Due to the high binding affinity of OTA for serum proteins, all treatments were conducted in medium supplemented with 2% FBS to minimize potential interference with toxicological outcomes. For cytotoxicity evaluation, 100 μL of cell suspension (8 × 10^3 cells/well) was seeded into 96-well plates. Upon reaching approximately 80% confluence, the culture medium was replaced with fresh medium containing varying concentrations of PAT, OTA, ACM, or their combinations. Cells were then incubated for 24 or 48 h, after which cell viability was assessed. Concentrations used for individual mycotoxin exposures are provided in Table S1, while those for binary and ternary mixture exposures are listed in Table S2.
(§3) Cells were diluted to a density of 8 × 10^3 cells/well and seeded in 96-well culture plates. After 24 h incubation, all cells were exposed to various concentrations of individual or combined contaminants and allowed to grow in an incubator for 24 h and 48 h, respectively. The cytotoxicity of the two different cell lines was determined using a CCK-8 kit according to the manufacturer’s instructions. After treatment, 10 μL CCK-8 solution was added to each well (10% culture volume) and incubated for 2 h at 37 °C. Absorbance values (A) were measured at 450 nm using a microplate reader (Thermo Fisher Scientific, Waltham, MA, USA). All treatments were performed in six replicates, and cell activity was calculated as follows: Cell Viability(%)=Aexperiment −A(blank)/Acontrol−A(blank)× 100
(§4) The dose–effect relationship for PAT, OTA, and ACM was calculated using the […] proposed by Chou and Talalay. fa/fu=D/Dm^m
(§5) D was the concentration of the contamination, fa was the cell proliferation inhibition rate, and fu was the unaffected fraction (fu = 1 − fa). Dm was the median effect dose for the 50% inhibition of cell proliferation. m was the coefficient indicating the shape of the dose–effect relationship (m = 1, m > 1, and m < 1 each indicated hyperbolic, sigmoidal, and flat sigmoidal dose–effect curves). The method employed the Dm parameter to measure the cytotoxicity of individual contamination.
(§6) When the composition of contaminations extended to binary or ternary, the interactions of multiple contaminations were assayed by means of combination index model (CI) based on the median effect principle, as the CI values calculated according to a generic formula: nCIx=∑j=1n(D)j/(Dx)j
(§7) ^n(CI)x referred to n kind of contaminant combined cell inhibition rate for x% of composite index, (D)j was referred to the joint action of n type of toxin to a total dose of x% cell inhibition rate, and (Dx)j referred to the combination of each contamination effect itself when dose of x% cell inhibition rate. Overall, the types of combined effects represented by CI = 0.9–1.1, CI < 0.9, and CI > 1.1 were additive, synergistic, and antagonistic, respectively.
(§8) In addition, the impact of contaminants on the combined effects was assessed using the dose reduction index (DRI). DRI indicated a multiplicative reduction in the dose required to produce the same effect when the contaminant was mixed compared to when used alone. […] The DRI was calculated as follows: n(CI)x=∑j=1n(D)j/(Dm)j=∑j=1n1/(DRI)j or (DRI)j=(D)j/(Dm)j
(§9) The IC50 values of the three different contaminations exposed to the two cell lines was calculated by GraphPad Prism 9.4.0 software. […]

Test [1] concerns SK-N-SH cells. The test is described as follows: CCK-8 cell viability, individual and combined exposure (CI/DRI analysis), SK-N-SH cells. In kind it is cell-based, human. Particulars: for IC50: Homo sapiens. As for the experimental part: as §1, §2, §3, §4, §5, §6, §7, §8, §9
In a further test the test system is Caco-2 cells. The following applies: cited from earlier work.
The test system of test [2] is SK-N-SH cells. Particulars: 24 h; cited from earlier work.
Where [3] appears, read: SK-N-SH, 24 h, in PAT+OTA group.
Setting [4] is: HK-2 cells, 24 h, CCK-8, mean ± SEM, n = 6, read-out: IC50.
[5] abbreviates: HK-2 cells, 48 h, CCK-8, mean ± SEM, n = 6, read-out: IC50.
The mark [6] stands for this setting: SK-N-SH cells, 24 h, CCK-8, mean ± SEM, n = 6, read-out: IC50.
The mark [7] stands for this setting: SK-N-SH cells, 48 h, CCK-8, mean ± SEM, n = 6, read-out: IC50.

Structures are written as SMILES. Like-named read-outs stand apart in the source and are kept apart here.

Usually IC50 stands for the concentration that gives 50% inhibition. In the case of `C[C@@H]1Cc2c(Cl)cc(C(=O)N[C@@H](Cc3ccccc3)C(=O)O)c(O)c2C(=O)O1` [OTA, ochratoxin A], the IC50 in the test with HK-2 cells (HK-2, 24 h) is 2.5 ± 0.049 µg/mL; in the test on HK-2 cells (HK-2, 48 h) it was 1 ± 0.021 µg/mL; in the test on SK-N-SH cells [1] (SK-N-SH, 24 h) it was 7 ± 0.357 µg/mL; in the test with SK-N-SH cells [1] (SK-N-SH, 48 h), 4.5 ± 0.415 µg/mL; with Caco-2 cells it was 145 µM. The “DRI (dose reduction index)” value was “greater than 1” with SK-N-SH cells [1] (setting [3]) and “greater than 1” in the test on SK-N-SH cells [1] (SK-N-SH, 48 h, in OTA+ACM group, Fa > 0.5).

On to `O=C1C=C2C(=CCOC2O)O1` (centres unmarked) [PAT, Patulin], for which the “DRI (dose reduction index)” value in the test with HK-2 cells (HK-2, 24 h) is “greater than 1”; in the test with SK-N-SH cells [1] (setting [3]) it was “greater than 1”. Moreover, the IC50 in the test with HK-2 cells (setting [4]) was 0.5 ± 0.005 µg/mL; with HK-2 cells (setting [5]), 0.4 ± 0.006 µg/mL; in the test on SK-N-SH cells [1] (setting [6]), 0.5 ± 0.024 µg/mL; in the test on SK-N-SH cells [1] (setting [7]) it was 0.25 ± 0.001 µg/mL; in the test on Caco-2 cells, 16 µM.

Take `C/C(=N\C#N)N(C)Cc1ccc(Cl)nc1` [ACM, acetamiprid]: in the test with HK-2 cells (HK-2, 24 h), the “DRI (dose reduction index)” value was “greater than 1”. The IC50 in the test on HK-2 cells (setting [4]) is 1160 ± 38.7 µg/mL; with HK-2 cells (setting [5]), 900.2 ± 4.1 µg/mL; in the test with SK-N-SH cells [1] (setting [6]), 700 ± 34.4 µg/mL; in the test on SK-N-SH cells [1] (setting [7]) it was 550 ± 31.6 µg/mL; with SK-N-SH cells [2] it was approximately 10600 µM.
